From paper PMC7168327, “Designed Antimicrobial Peptides for Topical Treatment of Antibiotic Resistant Acne Vulgaris” (Antibiotics, 2020)
≈ marks a conversion by molar mass, not a printed value. Square brackets hold non-standard residues; d marks the D form. Peptide text beside a SMILES is read from it. Orn = NCCC[C@H](N)C(=O)O

How the values were obtained:
[1] = test system: C. acnes HL043PA2; format: cell-based, Cutibacterium acnes; conditions: HL043PA2, 48 h
Description: (§1) The ten antibiotic resistant C. acnes clinical isolates were acquired from BEI resources with the two reference strains obtained from American Type Culture Collection (ATCC, Manassas, VA, USA). C. acnes is a relatively slow-growing, typically aerotolerant anaerobic so all in vitro C. acnes experiments were performed under anaerobic conditions.
(§2) Single colonies were inoculated in Reinforced Clostridium Medium (RCM) broth supplemented with sodium thioglycolate and incubated at 37 °C, with shaking at 200 rpm, for 2 or 3 days to reach logarithmic growth (OD600nm = 1.0). Each C. acnes (1 × 10^6 CFU per mL) was incubated with dAMP or clindamycin at two-fold serial dilutions (0.5–32 μg per mL) in RCM on a 96-well microplate for 48 h. Three replicas were included for each test article concentration. Bacterial growth was measured by optical density at 600 nm to determine the MIC for each dAMP applied.

[2] = test system: ten C. acnes clinical isolates and two C. acnes ATCC reference strains; format: cell-based, Cutibacterium acnes; conditions: for in vitro anti-bacterial activity against the C. acnes bacterial strains (in words): 0.5–32 μg/mL concentration range evaluated; for MIC values against all C. acnes isolates: ten clinical isolates and two ATCC reference strains, 48 h
Description: as §1, §2

[3] = test system: C. acnes HL045PA1; format: cell-based, Cutibacterium acnes; conditions: HL045PA1, 48 h
Description: as §1, §2

[4] = test system: C. acnes ATCC6919; format: cell-based, Cutibacterium acnes; conditions: ATCC6919, 48 h
Description: as §1, §2

[5] = test system: C. acnes HL082PA2; format: cell-based, Cutibacterium acnes; conditions: HL082PA2, 48 h
Description: as §1, §2

[6] = test system: C. acnes HL053PA1; format: cell-based, Cutibacterium acnes; conditions: HL053PA1, 48 h
Description: as §1, §2

[7] = test system: C. acnes HL038PA1; format: cell-based, Cutibacterium acnes; conditions: HL038PA1, 48 h
Description: as §1, §2

[8] = test system: C. acnes HL013PA1; format: cell-based, Cutibacterium acnes; conditions: HL013PA1, 48 h
Description: as §1, §2

[9] = test system: C. acnes HL043PA1; format: cell-based, Cutibacterium acnes; conditions: HL043PA1, 48 h
Description: as §1, §2

[10] = test system: C. acnes ATCC11827; format: cell-based, Cutibacterium acnes; conditions: ATCC11827, 48 h
Description: as §1, §2

[11] = test system: C. acnes HL072PA1; format: cell-based, Cutibacterium acnes; conditions: HL072PA1, 48 h
Description: as §1, §2

[12] = test system: C. acnes HL007PA1; format: cell-based, Cutibacterium acnes; conditions: HL007PA1, 48 h
Description: as §1, §2

[13] = test system: C. acnes HL056PA1; format: cell-based, Cutibacterium acnes; conditions: HL056PA1, 48 h
Description: as §1, §2

[14] = test system: bioluminescent human immortalized keratinocytes (HaCaT); test: Mammalian cytotoxicity, bioluminescent human keratinocytes; format: cell-based; conditions: 8 h
Description: (§3) Noninvasive and real-time monitoring of mammalian cytotoxicity to assess the potential skin toxicity of the dAMPs was evaluated using bioluminescent human immortalized keratinocytes (HaCaT, AddexBio, San Diego, CA, USA). The bioluminescent variant of HaCaT was constructed by transfection with a luciferase gene (RediFect Red-Fluc-Puromycin, Cat# CL596002). Keratinocytes (1 × 10^4 cells, 100 μL) were plated in 96-well black-walled plates. The candidate dAMPs were 2-fold serially diluted from 1024 µg/mL in growth medium supplemented with 150 µg/mL D-luciferin. Each concentration was performed in triplicate, with the final volume being 200 μL. Imaging was performed at select times (0, 15, and 30 min and 1, 3, 5, and 8 h) after the addition of the dAMP, and compared to concurrently run vehicle-control, using an IVIS Lumina imaging system (Caliper Life Sciences, Inc., Hopkinton, MA, USA). For imaging, the 96-well plate was positioned on the stage (12.5-cm field of view), with an open emission filter, binning of 4, and f-stop 1 and a 1-min exposure time. Data analysis was performed using the Living Image software program (version 4.3, Caliper Life Sciences, Inc.). The dAMP concentrations required to kill 10% and 50% of keratinocytes were determined using GraphPad Prism 7 (GraphPad Software, San Diego, CA, USA).

[15] = test system: C. acnes HL043PA2 compared to human keratinocytes; format: cell-based; conditions: 8 h
Description: In evaluating the clinical utility of each of the candidate dAMPs for C. acnes treatment, the Therapeutic Index was determined. The Therapeutic Index is defined as the ratio of concentration at which the dAMP is active against the prokaryotic C. acnes pathogen without inducing cytotoxic damage to the surrounding mammalian cells. The EC10 and EC50 doses, defined as the concentrations required to kill 10% and 50% respectively of human keratinocytes following 8 h incubation with each of the Riptide dAMPs, are tabulated and graphed in Table 2 and Figure 3, respectively. The larger the Therapeutic Index, the greater the specificity of the dAMP for destroying C. acnes cells.
as §2, §3

C[C@H](NC(=O)[C@H](Cc1ccccc1)NC(=O)[C@H](C)NC(=O)[C@H](Cc1ccccc1)NC(=O)[C@H](CCCN)NC(=O)[C@H](C)NC(=O)[C@H](Cc1ccccc1)NC(=O)[C@H](CCCN)NC(=O)[C@H](CCCN)NC(=O)[C@H](C)NC(=O)[C@H](Cc1ccccc1)NC(=O)[C@H](CCCN)NC(=O)[C@H](CCCN)NC(=O)[C@H](Cc1ccccc1)NC(=O)[C@H](CCCN)NC(=O)[C@H](CCCN)NC(=O)[C@H](C)NC(=O)[C@H](Cc1ccccc1)NC(=O)[C@H](CCCN)NC(=O)[C@H](CCCN)NC(=O)[C@H](C)NC(=O)[C@@H](N)Cc1ccccc1)C(=O)N[C@@H](Cc1ccccc1)C(N)=O [RP444] (H-FA[Orn][Orn]FA[Orn][Orn]F[Orn][Orn]FA[Orn][Orn]FA[Orn]FAFAF-NH2)
MIC [1]: 8 µg/mL (≈ 3.02 µM)
in vitro anti-bacterial activity against the C. acnes bacterial strains (in words) [2]: most active
MIC values against all C. acnes isolates [2]: 2 to 8 µg/mL
MIC [3]: 4 µg/mL (≈ 1.51 µM)
MIC [4]: 2 µg/mL (≈ 0.755 µM)
MIC [5]: 2 µg/mL (≈ 0.755 µM)
MIC [6]: 4 µg/mL (≈ 1.51 µM)
MIC [7]: 4 µg/mL (≈ 1.51 µM)
MIC [8]: 4 µg/mL (≈ 1.51 µM)
MIC [9]: 4 µg/mL (≈ 1.51 µM)
MIC [10]: 8 µg/mL (≈ 3.02 µM)
MIC [11]: 8 µg/mL (≈ 3.02 µM)
MIC [12]: 4 µg/mL (≈ 1.51 µM)
MIC [13]: 4 µg/mL (≈ 1.51 µM)
EC50, concentration required to kill 50% of human keratinocytes [14]: 20 µg/mL
Therapeutic Index (EC10 / MIC) [15]: 1.63
Therapeutic Index (EC50 / MIC) [15]: 2.5

CC[C@H](C)[C@H](NC(=O)[C@H](Cc1ccccc1)NC(=O)[C@H](CCCN)NC(=O)[C@H](CCCCN)NC(=O)[C@H](Cc1ccccc1)NC(=O)[C@H](CCCN)NC(=O)[C@H](CCCCN)NC(=O)[C@H](C)NC(=O)[C@H](Cc1ccccc1)NC(=O)[C@H](CCCCN)NC(=O)[C@H](CCCN)NC(=O)[C@@H](NC(=O)[C@@H](N)Cc1ccccc1)[C@@H](C)CC)C(=O)N[C@@H](CCCN)C(=O)N[C@@H](CCCCN)C(=O)N[C@@H](Cc1ccccc1)C(=O)N[C@@H](C)C(=O)N[C@@H](CCCCN)C(=O)N[C@@H](Cc1ccccc1)C(=O)N[C@@H](C)C(=O)N[C@@H](Cc1ccccc1)C(=O)N[C@@H](C)C(=O)N[C@@H](Cc1ccccc1)C(N)=O [RP551] (H-FI[Orn]KFAK[Orn]FK[Orn]FI[Orn]KFAKFAFAF-NH2)
MIC [1]: 2 µg/mL (≈ 0.714 µM)
in vitro anti-bacterial activity against the C. acnes bacterial strains (in words) [2]: most active
MIC values against all C. acnes isolates [2]: 2 to 8 µg/mL
MIC [3]: 2 µg/mL (≈ 0.714 µM)
MIC [4]: 2 µg/mL (≈ 0.714 µM)
MIC [5]: 2 µg/mL (≈ 0.714 µM)
MIC [6]: 2 µg/mL (≈ 0.714 µM)
MIC [7]: 2 µg/mL (≈ 0.714 µM)
MIC [8]: 2 µg/mL (≈ 0.714 µM)
MIC [9]: 2 µg/mL (≈ 0.714 µM)
MIC [10]: 2 to 4 µg/mL
MIC [11]: 2 to 4 µg/mL
MIC [12]: 2 µg/mL (≈ 0.714 µM)
MIC [13]: 2 µg/mL (≈ 0.714 µM)
EC50, concentration required to kill 50% of human keratinocytes [14]: 34.3 µg/mL
Therapeutic Index (EC10 / MIC) [15]: 8.3
Therapeutic Index (EC50 / MIC) [15]: 17.2

CC[C@H](C)[C@H](NC(=O)[C@H](CCCCN)NC(=O)[C@H](CC(C)C)NC(=O)[C@H](CCCN)NC(=O)[C@H](CC(C)C)NC(=O)[C@H](CCCNC(=N)N)NC(=O)[C@H](C)NC(=O)[C@H](CCCNC(=N)N)NC(=O)[C@@H](NC(=O)[C@H](CCCN)NC(=O)[C@H](Cc1ccccc1)NC(=O)[C@H](CCCNC(=N)N)NC(=O)[C@H](C)NC(=O)[C@H](CCCCN)NC(=O)[C@@H](NC(=O)[C@H](CCCN)NC(=O)[C@@H](N)Cc1ccccc1)[C@@H](C)CC)C(C)C)C(N)=O [RP553] (H-F[Orn]IKARF[Orn]VRARL[Orn]LKI-NH2)
MIC [1]: 16 µg/mL (≈ 7.72 µM)
in vitro anti-bacterial activity against the C. acnes bacterial strains (in words) [2]: modest anti-bacterial activity
MIC [3]: 16 µg/mL (≈ 7.72 µM)
MIC [4]: 8 µg/mL (≈ 3.86 µM)
MIC [5]: 16 µg/mL (≈ 7.72 µM)
MIC [6]: 16 µg/mL (≈ 7.72 µM)
MIC [7]: 16 µg/mL (≈ 7.72 µM)
MIC [8]: 8 µg/mL (≈ 3.86 µM)
MIC [9]: 16 µg/mL (≈ 7.72 µM)
MIC [10]: 16 µg/mL (≈ 7.72 µM)
MIC [11]: 16 µg/mL (≈ 7.72 µM)
MIC [12]: 16 µg/mL (≈ 7.72 µM)
MIC [13]: 16 µg/mL (≈ 7.72 µM)
EC50, concentration required to kill 50% of human keratinocytes [14]: 268 µg/mL
Therapeutic Index (EC50 / MIC) [15]: 16.8

CC[C@H](C)[C@H](NC(=O)[C@H](CCCN)NC(=O)[C@H](C)NC(=O)[C@H](CCCN)NC(=O)[C@H](CC(C)C)NC(=O)[C@H](CCCN)NC(=O)[C@@H](NC(=O)[C@H](CCCN)NC(=O)[C@@H](NC(=O)[C@H](CCCN)NC(=O)[C@H](C)NC(=O)[C@H](CCCN)NC(=O)[C@H](CC(C)C)NC(=O)[C@H](CCCN)NC(=O)[C@@H](N)Cc1ccccc1)[C@@H](C)CC)C(C)C)C(=O)N[C@@H](CCCN)C(=O)N[C@@H](CC(C)C)C(N)=O [RP554] (H-F[Orn]L[Orn]A[Orn]I[Orn]V[Orn]L[Orn]A[Orn]I[Orn]L-NH2)
MIC [1]: 8 µg/mL (≈ 4.25 µM)
in vitro anti-bacterial activity against the C. acnes bacterial strains (in words) [2]: most active
MIC values against all C. acnes isolates [2]: 2 to 8 µg/mL
MIC [3]: 4 µg/mL (≈ 2.12 µM)
MIC [4]: 4 µg/mL (≈ 2.12 µM)
MIC [5]: 8 µg/mL (≈ 4.25 µM)
MIC [6]: 4 µg/mL (≈ 2.12 µM)
MIC [7]: 8 µg/mL (≈ 4.25 µM)
MIC [8]: 2 to 4 µg/mL
MIC [9]: 4 µg/mL (≈ 2.12 µM)
MIC [10]: 8 µg/mL (≈ 4.25 µM)
MIC [11]: 8 µg/mL (≈ 4.25 µM)
MIC [12]: 4 µg/mL (≈ 2.12 µM)
MIC [13]: 4 µg/mL (≈ 2.12 µM)
EC50, concentration required to kill 50% of human keratinocytes [14]: 31 µg/mL
Therapeutic Index (EC10 / MIC) [15]: 2.38
Therapeutic Index (EC50 / MIC) [15]: 3.88
